Measurements reported in patent publication US10800741B2 (ANCUREALL PHARMACEUTICAL (SHANGHAI) CO., LTD., priority 2017, dated 2020).
Read-outs that look alike come from different tables or passages of the source.

Tests used:
Type in all cases: cell-based, Human
[1] = system: KCL-22 (BCR-ABL); test: In vitro growth inhibition of KCL-22 tumor cells (MTT/CCK8); conditions: in vitro growth inhibition (or induction of apoptosis), cells cultured 3 to 5 days, MTT (CCK8), read-out: IC50 KCL-22 (BCR-ABL)
[2] = system: Hep3B2 (FGFR3/4+++); test: In vitro growth inhibition of Hep3B2 tumor cells (MTT/CCK8); conditions: in vitro growth inhibition (or induction of apoptosis), cells cultured 3 to 5 days, MTT (CCK8), read-out: IC50 Hep3B2 (FGFR3/4+++)
[3] = system: H1703 (PDGFRa amp); test: In vitro growth inhibition of H1703 tumor cells (MTT/CCK8); conditions: in vitro growth inhibition (or induction of apoptosis), cells cultured 3 to 5 days, MTT (CCK8), read-out: IC50 H1703 (PDGFRa amp)
[4] = system: MOLM-13 (FLT3-ITD); test: In vitro growth inhibition of MOLM-13 tumor cells (MTT/CCK8); conditions: in vitro growth inhibition (or induction of apoptosis), cells cultured 3 to 5 days, MTT (CCK8), read-out: IC50 MOLM-13 (FLT3-ITD)
[5] = system: Kasumi-1 (KIT N822K); test: In vitro growth inhibition of Kasumi-1 tumor cells (MTT/CCK8); conditions: in vitro growth inhibition (or induction of apoptosis), cells cultured 3 to 5 days, MTT (CCK8), read-out: IC50 Kasumi-1 (KIT N822K)
[6] = system: H1581 (FGFR1 amp); test: In vitro growth inhibition of H1581 tumor cells (MTT/CCK8); conditions: in vitro growth inhibition (or induction of apoptosis), cells cultured 3 to 5 days, MTT (CCK8), read-out: IC50 H1581 (FGFR1 amp)
[7] = system: Karpas 299 (NPM-ALK); test: In vitro growth inhibition of Karpas 299 tumor cells (MTT/CCK8); conditions: in vitro growth inhibition (or induction of apoptosis), cells cultured 3 to 5 days, MTT (CCK8), read-out: IC50 Karpas 299 (NPM-ALK)
[8] = system: KATO III (FGFR2 amp); test: In vitro growth inhibition of KATO III tumor cells (MTT/CCK8); conditions: in vitro growth inhibition (or induction of apoptosis), cells cultured 3 to 5 days, MTT (CCK8), read-out: IC50 KATO III (FGFR2 amp)

| SMILES | IC50 ([1]; Homo sapiens, KCL-22) [nM] | IC50 ([2]; Homo sapiens, Hep3B) [nM] | IC50 ([3]; Homo sapiens, NCI-H1703) [nM] | IC50 ([4]; Homo sapiens, MOLM-13) [nM] | IC50 ([5]; Homo sapiens, Kasumi 1) [nM] | IC50 ([6]; Homo sapiens, NCI-H1581) [nM] | IC50 ([7]; Homo sapiens, KARPAS-299) [nM] | IC50 ([8]; Homo sapiens, KATO III) [nM] | IC50 [1] [nM] | IC50 [2] [nM] | IC50 [3] [nM] | IC50 [4] [nM] | IC50 [5] [nM] | IC50 [6] [nM] | IC50 [7] [nM] | IC50 [8] [nM] |
| --- | --- | --- | --- | --- | --- | --- | --- | --- | --- | --- | --- | --- | --- | --- | --- | --- |
| COc1cc(Oc2ccnc3cc(OC)c(C(N)=O)cc23)ccc1NC(=O)n1nc(C(C)(C)C)cc1N [Compound 73, 4-{4-[(5-amino-3-tert-butyl-pyrazol-1-carbonyl)-amino]-3-methoxy-phenoxy}-7-methoxyquinolin-6-carboxamide] | 80.6 | 288 | 222 | 197 | 129 | 138 | 88.5 | 265 |  |  |  |  |  |  |  |  |
| COc1cc2nccc(Oc3ccc(NC(=O)N4CCc5ccsc5C4)c(Cl)c3)c2cc1C(N)=O [Compound 74, 4-{3-chloro-4-[(4,7-dihydro-5H-thieno[2,3-c]pyridin-6-carbonyl)-amino]-phenoxy}-7-methoxyquinolin-6-carboxamide] | > 1000 | > 1000 | > 1000 | > 1000 | > 1000 | > 1000 | > 1000 | > 1000 |  |  |  |  |  |  |  |  |
| COc1cc2nccc(Nc3ccc(NC(=O)Nc4cc(C(C)(C)C)on4)c(Cl)c3)c2cc1C(N)=O [Compound 77, 4-{4-[3-(5-tert-butyl-isoxazol-3-yl)-ureido]-3-chlorophenylamino}-7-methoxyquinolin-6-carboxamide] | 294 | 494 | 212 | 42.5 | 518 | 243 | > 1000 | 17 |  |  |  |  |  |  |  |  |
| COc1cc2nccc(Nc3ccc(NC(=O)Nc4cc(C(C)(C)C)on4)cc3)c2cc1C(N)=O [Compound 78, 4-{4-[3-(5-tert-butyl-isoxazol-3-yl)-ureido]-phenylamino}-7-methoxyquinolin-6-carboxamide] | > 1000 | 502 | 447 | 1.37 | > 1000 | 684 | > 1000 | 36.6 |  |  |  |  |  |  |  |  |
| COc1cc2nccc(Nc3ccc(NC(=O)Nc4cc(C(C)(C)C)n[nH]4)c(Cl)c3)c2cc1C(N)=O [Compound 79, 4-{4-[3-(5-tert-butyl-2H-pyrazol-3-yl)-ureido]-3-chlorophenylamino}-7-methoxyquinol in-6-carboxamide] | > 1000 | 384 | 278 | 107 | > 1000 | 254 | > 1000 | 19.9 |  |  |  |  |  |  |  |  |
| CC(C)(C)c1cc(NC(=O)Nc2ccc(Oc3ccnc4cc(OCCN5CCOCC5)c(C(N)=O)cc34)cc2Cl)[nH]n1 [Compound 81, 4-{4-[3-(5-tert-butyl-2H-pyrazol-3-yl)-ureido]-3-chloro-phenoxy}-7-(2-morpholin-4-yl-ethoxy) pyridine-6-carboxamide] |  |  |  |  |  |  |  |  | 34.9 | 44.7 | 11.3 | 11.9 | 26.7 | 4.94 | 466 | 0.31 |
| CN(C)CCOc1cc2nccc(Oc3ccc(NC(=O)Nc4cc(C(C)(C)C)n[nH]4)c(Cl)c3)c2cc1C(N)=O [Compound 83] | 190 | 150 | 59.5 | 15.3 | 260 | 92.9 | 851 | 5.94 |  |  |  |  |  |  |  |  |
| CC(C)(C)c1cc(NC(=O)Nc2ccc(Oc3ccnc4cc(OCCN5CCCCC5)c(C(N)=O)cc34)cc2Cl)[nH]n1 [Compound 84, 4-{4-[3-(5-tert-butyl-2H-pyrazol-3-yl)-ureido]-3-chloro-phenoxy}-7-(2-piperidin-1-yl-ethoxy)-quinolin-pyridine-6-carboxamide] | 287 | 148 | 127 | 35.2 | 240 | 114 | > 1000 | 6.09 |  |  |  |  |  |  |  |  |
| COCCN1CCN(CCCOc2cc3nccc(Oc4ccc(NC(=O)Nc5cc(C(C)(C)C)n[nH]5)c(Cl)c4)c3cc2C(N)=O)CC1 [Compound 85, 4-{4-[3-(5-tert-butyl-2H-pyrazol-3-yl)-ureido]-3-chloro-phenoxy}-7-{3-[4-(2-methoxy-ethyl)-piperazin-1-yl]-propoxy}-quinolin-6-carboxamide] | 33.1 | 16.8 | 14 | 2.83 | 6.49 | 14.2 | 263 | 1.92 |  |  |  |  |  |  |  |  |
| CC(C)(C)c1cc(NC(=O)Nc2ccc(Oc3ccnc4cc(O)c(C(N)=O)cc34)c(Cl)c2Cl)[nH]n1 [Compound 92, 4-{4-[3-(5-tert-butyl-2H-pyrazol-3-yl)-ureido]-2,3-dichloro-phenoxy}-7-hydroxy-quinolin-6-carboxamide] | 67.5 | 232 | 453 | 28.9 | 182 | 146 | 749 | 17.5 |  |  |  |  |  |  |  |  |

Continued, in another order:

| IC50 ([1]; Homo sapiens, KCL-22) [nM] | IC50 ([2]; Homo sapiens, Hep3B) [nM] | IC50 ([3]; Homo sapiens, NCI-H1703) [nM] | IC50 ([4]; Homo sapiens, MOLM-13) [nM] | IC50 ([5]; Homo sapiens, Kasumi 1) [nM] | IC50 ([6]; Homo sapiens, NCI-H1581) [nM] | IC50 ([7]; Homo sapiens, KARPAS-299) [nM] | IC50 ([8]; Homo sapiens, KATO III) [nM] | SMILES | IC50 [1] [nM] | IC50 [2] [nM] | IC50 [3] [nM] | IC50 [4] [nM] | IC50 [5] [nM] | IC50 [6] [nM] | IC50 [7] [nM] | IC50 [8] [nM] |
| --- | --- | --- | --- | --- | --- | --- | --- | --- | --- | --- | --- | --- | --- | --- | --- | --- |
| > 1000 | > 1000 | > 1000 | > 1000 | > 1000 | > 1000 | > 1000 | > 1000 | CNC(=O)c1cc2c(Oc3ccc(NC(=O)N4CCN(C)CC4)c(Cl)c3Cl)ccnc2cc1OCCOC [Compound 75, 4-{2,3-dichloro-4-[(4-methyl-piperazin-1-carbonyl)-amino]-phenoxy}-7-(2-methoxy-ethoxy)-quinolin-6-carboxylic acid methylamide] |  |  |  |  |  |  |  |  |
| > 1000 | > 1000 | 370 | > 1000 | ≥ 1000 | > 1000 | > 1000 | 363 | CNC(=O)c1cc2c(Oc3ccc(NC(=O)N4CCCC4)c(Cl)c3Cl)ccnc2cc1OCCOC [Compound 76, 4-{2,3-dichloro-4-[(pyrrolidin-1-carbonyl)-amino]-phenoxy}-7-(2-methoxy-ethoxy)-quinolin-6-carboxylic acid methylamide] |  |  |  |  |  |  |  |  |
| 20.6 | 23.9 | 9.43 | 1.7 | 5.21 | 3.61 | 174 | 2.94 | CN1CCN(CCCOc2cc3nccc(Oc4ccc(NC(=O)Nc5cc(C(C)(C)C)n[nH]5)c(Cl)c4)c3cc2C(N)=O)CC1 [Compound 82, 4-{4-[3-(5-tert-butyl-2H-pyrazol-3-yl)-ureido]-3-chloro-phenoxy}-7-[3-(4-methyl-piperazin-1-yl)-propoxy]-quinolin-6-carboxamide] |  |  |  |  |  |  |  |  |
| 6.12 | 9.84 | 79.3 | 10.3 | 8.29 | 210 | 178 | 3.53 | CN(C)CCOc1cc2nccc(Oc3ccc(NC(=O)Nc4cc(C(C)(C)C)n[nH]4)c(Cl)c3Cl)c2cc1C(N)=O [Compound 93, 4-{4-[3-(5-tert-butyl-2H-pyrazol-3-yl)-ureido]-2,3-dichloro-phenoxy}-7-(2-dimethylamino-ethoxy)carboxamide] |  |  |  |  |  |  |  |  |
| 3.66 | 10.6 | 5.03 | 1.61 | 4.22 | 4.17 | 65 | 0.89 | CC(C)(C)c1cc(NC(=O)Nc2ccc(Oc3ccnc4cc(OCCN5CCOCC5)c(C(N)=O)cc34)c(Cl)c2Cl)[nH]n1 [Compound 94, 4-{4-[3-(5-tert-butyl-2H-pyrazol-3-yl)-ureido]-2,3-dichloro-phenoxy}-7-(2-morpholin-4-yl-ethoxy)-quinolin-6-carboxamide] |  |  |  |  |  |  |  |  |
